Results on 7 molecules are retold here after ChEMBL document CHEMBL1177843, “Metal based biologically active compounds: design, synthesis, and antibacterial/antifungal/cytotoxic properties of triazole-derived Schiff bases and their oxovanadium(IV) complexes” (Eur J Med Chem, 2010).

Series [1] concerns Bacillus subtilis. Briefly: Antibacterial activity against Bacillus subtilis at 1 mg/ml after 24 hrs by agar-well diffusion method. Type of series: functional. To be noted: for zone of inhibition at 1000 µg/mL: Bacillus subtilis, 24 h, read-out: DIZ.
Series [2] deals with Staphylococcus aureus. Briefly: Antibacterial activity against Staphylococcus aureus at 1 mg/ml after 24 hrs by agar-well diffusion method. Type of series: functional. To be noted: for zone of inhibition at 1000 µg/mL: Staphylococcus aureus, 24 h, read-out: DIZ.
For series [3], the system named is Escherichia coli. Briefly: Antibacterial activity against Escherichia coli at 1 mg/ml after 24 hrs by agar-well diffusion method. It counts as functional. To be noted: for zone of inhibition at 1000 µg/mL: Escherichia coli, 24 h, read-out: DIZ.
Series [4] deals with Shigella flexneri. Briefly: Antibacterial activity against Shigella flexneri at 1 mg/ml after 24 hrs by agar-well diffusion method. To be noted: for zone of inhibition at 1000 µg/mL: Shigella flexneri, 24 h, read-out: DIZ. It counts as functional.
Series [5] concerns Salmonella enterica. Briefly: Antibacterial activity against Salmonella typhi at 1 mg/ml after 24 hrs by agar-well diffusion method. It counts as functional, Salmonella enterica subsp. enterica serovar Typhi. To be noted: for zone of inhibition at 1000 µg/mL: Salmonella enterica, 24 h, read-out: DIZ.
The subject of series [6] is Pseudomonas aeruginosa. The series is described as follows: Antibacterial activity against Pseudomonas aeruginosa at 1 mg/ml after 24 hrs by agar-well diffusion method. Type of series: functional. To be noted: for zone of inhibition at 1000 µg/mL: Pseudomonas aeruginosa, 24 h, read-out: DIZ.
The subject of series [7] is Artemia salina. Briefly: Toxicity in Artemia salina nauplii assessed as mortality after 24 hrs. It counts as organism-based. To be noted: in vivo.
In series [8] the test system is Aspergillus flavus. Briefly: Antifungal activity against Aspergillus flavus after 7 days. Type of series: functional. To be noted: 168 h.
Series [9] relates to Candida albicans. Briefly: Antifungal activity against Candida albicans after 7 days. To be noted: 168 h.
Series [10] deals with Microsporum canis. Briefly: Antifungal activity against Microsporum canis after 7 days. It counts as functional. To be noted: 168 h.
In series [11] the test system is Trichophyton longifusum. Briefly: Antifungal activity against Trichophyton longifusum after 7 days. It counts as functional. To be noted: 168 h.
Series [12] deals with Nakaseomyces glabratus. The series is described as follows: Antifungal activity against Candida glabrata after 7 days. Type of series: functional. To be noted: 168 h.
Series [13] concerns Fusarium solani. The series is described as follows: Antifungal activity against Fusarium solani after 7 days. Type of series: functional. To be noted: 168 h.

In brackets after ≈: the same amount, converted by molar mass. A value given as a limit tells only on which side of the number the result lay.

For the molecule `C(=N\c1n[nH]c(/N=C/c2ccc[nH]2)n1)/c1ccc[nH]1`, the Activity came to 39% in [1]; 39% in series [2]; 55% in [3]; 39% in series [4]; 55% in series [5]; 39% in series [6]. Moreover, the zone of inhibition at 1000 µg/mL in series [1] came out at 13 mm; in series [2], 11 mm; in series [3] it was 17 mm; in [4], 12 mm; in series [5], 16 mm; in series [6], 14 mm. The LD50 in series [7] was above 6.897 ×10⁻⁴ M/ml.

For the molecule `C/C(=N\c1n[nH]c(/N=C(\C)c2ccccn2)n1)c1ccccn1`, the Activity in series [1] worked out at 39%; in series [2], 39%; in series [3] it was 58%; in series [4], 39%; in series [5] it was 58%; in series [6] it was 58%. For the same molecule, the zone of inhibition at 1000 µg/mL in series [1] came to 13 mm; in [2] it was 11 mm; in series [3] it was 17 mm; in series [4], 12 mm; in series [5] it was 16 mm; in series [6], 18 mm. In series [7], the LD50 was above 3.341 ×10⁻⁴ M/ml.

Regarding `C(=N\c1n[nH]c(/N=C/c2ccccn2)n1)/c1ccccn1`, the Activity in series [1] is 43%; in series [2], 58%; in series [3] it was 43%; in [4], 58%; in series [5] it was 43%; in series [6], 43%. The zone of inhibition at 1000 µg/mL in series [1] came to 12 mm; in [2] it was 16 mm; in series [3] it was 15 mm; in [4], 18 mm; in series [5] it was 11 mm; in [6] it was 13 mm. Moreover, the LD50 in series [7] is reported as above 4.128 ×10⁻⁴ M/ml.

For the molecule `C[C@@H]1[C@H](O)[C@@H](C)/C=C/C=C/C=C/C=C/C=C/C=C/C=C/[C@H](O[C@@H]2O[C@H](C)[C@@H](O)[C@H](N)[C@@H]2O)C[C@@H]2O[C@](O)(C[C@@H](O)C[C@@H](O)[C@H](O)CC[C@@H](O)C[C@@H](O)CC(=O)O[C@H]1C)C[C@H](O)[C@H]2C(=O)O` [AMPHOTERICIN B], in [8], inhibition of growth (MIC) required 20 µg/mL (≈ 21.6 µM).

In the case of `Clc1ccc(COC(Cn2ccnc2)c2ccc(Cl)cc2Cl)c(Cl)c1` (centres undefined) [MICONAZOLE], the MIC in [9] came to 111 µg/mL (≈ 266 µM); in series [10], 98.4 µg/mL (≈ 236 µM); in series [11] it was 70 µg/mL (≈ 168 µM); in [12], 111 µg/mL (≈ 266 µM); in series [13] it was 73.2 µg/mL (≈ 176 µM).

As for `Oc1ccc2ccccc2c1/C=N/c1n[nH]c(/N=C/c2c(O)ccc3ccccc23)n1`, the Activity came out at 57% in series [1]; 35% in series [2]; 35% in [3]; 35% in series [4]; 35% in series [5]; 35% in series [6]. The zone of inhibition at 1000 µg/mL turned out to be 16 mm in series [1]; 12 mm in [2]; 11 mm in series [3]; 13 mm in series [4]; 14 mm in series [5]; 11 mm in series [6]. Further, in [7], the LD50 is on record as above 7.614 ×10⁻⁴ M/ml.

On to `C[C@@H](O)[C@H]1C(=O)N2C(C(=O)O)=C(SCCNC=N)C[C@H]12` [IMIPENEM ANHYDROUS], for which the zone of inhibition at 1000 µg/mL in [1] amounted to 28 mm; in series [2], 26 mm; in series [3] it was 29 mm; in series [4], 31 mm; in [5], 29 mm; in series [6], 30 mm.
